From patent US11780832B2, “Lactivicin compounds, their preparation and use as antibacterial agents” (priority 2021, dated 2023)
≈ marks a conversion by molar mass, not a printed value.

Assays:
Format in all cases: cell-based
[1] = tested on: Klebsiella oxytoca KPC-2, TEM-1; assay: MIC, CLSI broth microdilution; settings: KPC-2, TEM-1, read-out: MIC
Summary of the method: (§1)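 Inhibitory concentrations were measured in broth following CLSI microdilution rules. Test organisms, each with known resistance determinants, were inoculated at a final 5×10^5 CFU/mL into wells holding compound at final concentrations from 16 down to 0.0125 μg/mL.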

[2] = tested on: Escherichia coli CTX-M-15; assay: MIC, CLSI broth microdilution; settings: CTXM15
Summary of the method: as §1

[3] = tested on: Pseudomonas aeruginosa ATCC 27853; assay: MIC, CLSI broth microdilution; settings: ATCC27853
Summary of the method: as §1

[4] = tested on: Acinetobacter baumannii ATCC 19606; assay: MIC, CLSI broth microdilution; settings: ATCC19606
Summary of the method: as §1

[5] = tested on: Serratia marcescens AmpC overexpressed; assay: MIC, CLSI broth microdilution
Summary of the method: (§2)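 MIC values come from CLSI broth microdilution against clinical and ATCC isolates whose resistance genes had been characterized. Compound dilutions were two-fold, with final concentrations between 16 and 0.0125 μg/mL.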

[6] = tested on: Klebsiella pneumoniae OXA-48, SHV-1; assay: MIC, CLSI broth microdilution
Summary of the method: as §2

[7] = tested on: Escherichia coli ATCC 25922; assay: MIC, CLSI broth microdilution; settings: ATCC25922
Summary of the method: as §1

[8] = tested on: Enterobacter cloacae species complex NDM-1; assay: MIC, CLSI broth microdilution
Summary of the method: as §1

Escherichia coli CMY-2 = assay: MIC, CLSI broth microdilution; settings: CMY2
Summary of the method: as §1

[9] = tested on: Pseudomonas aeruginosa AmpC overexpressed; assay: MIC, CLSI broth microdilution
Summary of the method: as §2

[10] = tested on: Proteus mirabilis CMY-DHA; assay: Synergistic activity: MIC in the presence of Avibactam; settings: row r36, in the presence of Avibactam @ 4 μg/mL
Protocol: (§3) Isolates were sub-cultured onto appropriate media and stocked in skim milk at −80° C. Following two subcultures from frozen stock, in vitro antimicrobial susceptibility testing was performed using the Clinical and Laboratory Standards Institute (CLSI) broth microdilution method. Briefly, fresh cultures were suspended in culture media to give a final stock inoculum size of 5×10^7 colony forming units per milliliter of broth (CFU/mL). Test compounds were prepared at a stock solution concentration equal to 128 μg/mL, then diluted to give a final an initial working concentration of 32 μg/mL. 100 μL of the stock solutions were added to the first wells in a 96-well plate and were then diluted using a 2-fold dilution method to give a range of 32-0.025 μg/mL. 100 μL of the bacterial suspensions were then added to the 96-well plates to give a final working inoculum size of 5×10^5 CFU/mL. The final compound concentration range was 16-0.0125 μg/mL. […] MICs for comparator agents were determined using custom-designed, in-house prepared 96-well broth microdilution panels.
(§4) The same method used to test the activity of the claimed compounds was used to determine their synergistic activity when combined with a β-lactamase inhibitor except that either a fixed concentration or fixed ratio of a β-lactamase inhibitor was added to the 96-well plates prior to adding the bacteria cultures. Synergistic activity was defined as the reduction of MIC of a given compound when tested using the β-lactamase inhibitor versus testing the compound in the absence of a β-lactamase inhibitor.

[11] = tested on: Citrobacter freundii species complex Elevated AmpC; assay: as above; settings: row r16, in the presence of Avibactam @ 4 μg/mL
Protocol: as §3, §4

[12] = tested on: Escherichia coli Elevated AmpC; assay: as above
Protocol: as §3, §4

[13] = tested on: Enterobacter cloacae species complex Elevated AmpC; assay: as above
Protocol: as §3, §4

Escherichia coli CMY-DHA [14] = assay: as above
Protocol: as §3, §4

[15] = tested on: Klebsiella pneumoniae CMY-DHA; assay: as above; settings: row r32, in the presence of Avibactam @ 4 μg/mL
Protocol: as §3, §4

[16] = tested on: Citrobacter freundii species complex Elevated AmpC; assay: MIC against Elevated AmpC producing strains, compound alone; settings: row r16
Protocol: (§5) Gram-negative and Gram-positive bacterial strains used during the in vitro minimum inhibitory concentration (MIC) determination were obtained either from the American Type Culture Collection (ATCC) or from clinical specimens. All strains were characterized genotypically and the respective antibiotic resistance markers for each strain were identified.
as §3

[17] = tested on: Escherichia coli Elevated AmpC; assay: as above
Protocol: as §5, §3

[18] = tested on: Enterobacter cloacae species complex Elevated AmpC; assay: as above
Protocol: as §5, §3

[19] = tested on: Proteus mirabilis CMY-DHA; assay: MIC against CMY-DHA producing strains, compound alone; settings: row r36
Protocol: as §5, §3

Escherichia coli CMY-DHA [20] = assay: as above
Protocol: as §5, §3

[21] = tested on: Klebsiella pneumoniae CMY-DHA; assay: as above; settings: row r32
Protocol: as §5, §3

`Nc1nc(/C(=N/OC2(C(=O)O)CC2)C(=O)N[C@H]2CON(C3(C(=O)O)C[C@H](N4C(=O)c5cc(O)c(O)cc5C4=O)C(=O)O3)C2=O)ns1` (stereo partly drawn) [Cmpd 18, (4S)-2-[(4S)-4-{[(2Z)-2-(5-amino-1,2,4-thiadiazol-3-yl)-2-{[(1-carboxycyclopropyl)oxy]imino}acetyl]amino}-3-oxo-1,2-oxazolidin-2-yl]-4-(5,6-dihydroxy-1,3-dioxo-1,3-dihydro-2H-isoindol-2-yl)-5-oxooxolane-2-carboxylic acid] showed an MIC [1] of 0.0149 µg/mL (≈ 0.0225 µM), an MIC [2] of 1 µg/mL (≈ 1.51 µM) and an MIC [3] of 0.12 µg/mL (≈ 0.181 µM). The MIC [4] was 0.25 µg/mL (≈ 0.378 µM), the MIC [5] was 0.5 µg/mL (≈ 0.756 µM) and the MIC [6] was 0.0149 µg/mL (≈ 0.0225 µM). It also gave an MIC [7] of 0.12 µg/mL (≈ 0.181 µM), an MIC [8] of 0.5 µg/mL (≈ 0.756 µM) and an MIC (Escherichia coli CMY-2) of 2 µg/mL (≈ 3.02 µM). It also gave an MIC [9] of 1 µg/mL (≈ 1.51 µM), an MIC [10] of 0.06 µg/mL and an MIC [11] of 0.03 µg/mL. For the same molecule, the MIC ([12]; strain of row r10, in the presence of Avibactam @ 4 μg/mL) was “<=0.008 μg/mL”, the MIC ([12]; strain of row r11, in the presence of Avibactam @ 4 μg/mL) was “<=0.008 μg/mL” and the MIC ([12]; strain of row r12, in the presence of Avibactam @ 4 μg/mL) was 0.06 µg/mL. For the same molecule, the MIC ([12]; strain of row r13, in the presence of Avibactam @ 4 μg/mL) was “<=0.008 μg/mL”, the MIC ([12]; strain of row r14, in the presence of Avibactam @ 4 μg/mL) was “<=0.008 μg/mL” and the MIC ([12]; strain of row r15, in the presence of Avibactam @ 4 μg/mL) was 0.06 µg/mL. The MIC ([13]; in the presence of Avibactam @ 4 μg/mL) was 0.06 µg/mL, the MIC ([13]; strain of row r7, in the presence of Avibactam @ 4 μg/mL) was 0.12 µg/mL and the MIC ([13]; strain of row r20, in the presence of Avibactam @ 4 μg/mL) was “<=0.008 μg/mL”. The MIC (Escherichia coli CMY-DHA [14]; strain of row r26, in the presence of Avibactam @ 4 μg/mL) was 0.03 µg/mL, the MIC (Escherichia coli CMY-DHA [14]; strain of row r27, in the presence of Avibactam @ 4 μg/mL) was “<=0.008 μg/mL” and the MIC (Escherichia coli CMY-DHA [14]; strain of row r28, in the presence of Avibactam @ 4 μg/mL) was 0.03 µg/mL. The MIC (Escherichia coli CMY-DHA [14]; strain of row r29, in the presence of Avibactam @ 4 μg/mL) was 0.06 µg/mL, the MIC (Escherichia coli CMY-DHA [14]; strain of row r30, in the presence of Avibactam @ 4 μg/mL) was “<=0.008 μg/mL” and the MIC (Escherichia coli CMY-DHA [14]; strain of row r31, in the presence of Avibactam @ 4 μg/mL) was 0.06 µg/mL. It also gave an MIC (Escherichia coli CMY-DHA [14]; strain of row r34, in the presence of Avibactam @ 4 μg/mL) of 0.015 µg/mL, an MIC (Escherichia coli CMY-DHA [14]; strain of row r35, in the presence of Avibactam @ 4 μg/mL) of 0.015 µg/mL and an MIC [15] of 0.25 µg/mL. For the same molecule, the MIC [16] was 1 µg/mL (≈ 1.51 µM), the MIC ([17]; strain of row r10) was 0.03 µg/mL (≈ 0.0454 µM) and the MIC ([17]; strain of row r11) was 0.25 µg/mL (≈ 0.378 µM). It also gave an MIC ([17]; strain of row r12) of 0.5 µg/mL (≈ 0.756 µM), an MIC ([17]; strain of row r13) of 0.06 µg/mL (≈ 0.0907 µM) and an MIC ([17]; strain of row r14) of 0.06 µg/mL (≈ 0.0907 µM). It also gave an MIC ([17]; strain of row r15) of 0.25 µg/mL (≈ 0.378 µM), an MIC [18] of 1 µg/mL (≈ 1.51 µM) and an MIC ([18]; strain of row r7) of 4 µg/mL (≈ 6.05 µM). It also gave an MIC ([18]; strain of row r20) of 0.25 µg/mL (≈ 0.378 µM), an MIC [19] of 1 µg/mL (≈ 1.51 µM) and an MIC (Escherichia coli CMY-DHA [20]; strain of row r26) of 0.5 µg/mL (≈ 0.756 µM). For the same molecule, the MIC (Escherichia coli CMY-DHA [20]; strain of row r27) was 0.12 µg/mL (≈ 0.181 µM), the MIC (Escherichia coli CMY-DHA [20]; strain of row r28) was 0.25 µg/mL (≈ 0.378 µM) and the MIC (Escherichia coli CMY-DHA [20]; strain of row r29) was 1 µg/mL (≈ 1.51 µM). The MIC (Escherichia coli CMY-DHA [20]; strain of row r30) was 0.5 µg/mL (≈ 0.756 µM), the MIC (Escherichia coli CMY-DHA [20]; strain of row r31) was 2 µg/mL (≈ 3.02 µM) and the MIC (Escherichia coli CMY-DHA [20]; strain of row r34) was 0.5 µg/mL (≈ 0.756 µM). It also gave an MIC (Escherichia coli CMY-DHA [20]; strain of row r35) of 0.5 µg/mL (≈ 0.756 µM) and an MIC [21] of 1 µg/mL (≈ 1.51 µM).
